In patent US20160264593A1 (priority 2013, published 2016):
Values joined by “and” are separate entries in the source; they are usually repeats but may differ in a detail not shown here. Equal values may be shown once.

Legend:
PP2A [1] = assay: PP2A activity in mouse brains after IP dosing (PP2A immunoprecipitation phosphatase assay, malachite green); format: in vivo, Balb/c mice; parameters: Average Conc. (group of 3 mice): unit not given here; details: for Average Conc. (group of 3 mice) / Average Relative Activity (group, vehicle = 100) / Conc. (phosphate, single reading, per mouse) / Mean Conc. (per mouse) / Mean Conc. less IgG blank (per mouse) / Relative Conc. (per mouse, to vehicle) / Relative PP2A Activity (per mouse, vehicle = 100): brain
Method: (§1) Coomassie (Bradford) Protein Assay Kit (Pierce); PP2A Immunoprecipitation Phosphatase Assay Kit (Millipore); Lysate preparation for low endogenous phosphate: 20 mM imidazole-HCl, 2 mM EDTA, 2 mM EGTA, 1 mM PMSF, 1 mM benzamidine, 10 ug/ml each of aprotinin, leupeptin, antipain, soybean trypsin inhibitor; Normal Mouse IgG (Millipore); Okadaic acid (OA) (Tocris); DMSO (Sigma).
(§2) • Species: Mus Musculus • Strain: Balb/c mice • Age: 6-8 weeks • Sex: female • Body weight: 18-22 g • Vendor: Shanghai Laboratory Animal Center, Shanghai, China; • Number of animals: 66 Balb/c mice plus spare
(§3) The mice were kept in laminar flow rooms at constant temperature and humidity with 4 animals in each cage. • Temperature: 20-25 • Humidity: 40-70%. • Light cycle: 12 hours light and 12 hours dark. • Cages: Made of polycarbonate. The size is 29 cm×17.5 cm×12 cm (L×w×H). The bedding material is wood debris, which is changed once per week. • Diet: Animals had free access to irradiation sterilized dry granule food during the entire study period. • Water: Animals had free access to sterile drinking water. • Cage identification: the identification labels for each cage contained the following information: number of animals, sex, strain, date arrival, treatment, study number, group number, and the starting date of the treatment. • Animal identification: Animals were marked by ear punch.
(§4) All the procedures related to animal handling, care, and the treatment in this study were performed according to guidelines approved by the Institutional Animal Care and Use Committee (IACUC) of WuXi AppTec (Shanghai), following the guidance of the Association for Assessment and Accreditation of Laboratory Animal Care (AAALAC). At the time of routine monitoring, the animals were checked and recorded for any effects of tumor growth on normal behavior such as mobility, food and water consumption (by looking only), body weight gain/loss, eye/hair matting and any other abnormal effect.
(§5) 1. Proper amount of the compounds were weighed. 2. The compounds were dissolved in 4% sterile sodium bicarbonate. 3. All of the compounds should be well dissolved and clear. 4. The compounds should be kept cold once in solution and injected within an hour. 5. The mice were administered intraperitoneally according to their body weights, 20 g mouse was treated with 0.2 ml compound solution. 6. Mice were treated with vehicle and compounds according to Table 1. 7. 3 hours after the dose, 3 mice from each group were euthanized by
(§6) CO2 exposure, and the brains and left lobe of livers were taken and snap-frozen in liquid nitrogen immediately. 6 hours after the dose, the other 3 mice from each group were euthanized by CO2 exposure, and the brains and left lobe of livers were taken and snap-frozen in liquid nitrogen immediately.
(§7) Preparation of malachite green phosphate detection solution Added […] of Solution B to each 1 mL of Solution A, kept at room temperature during use. […] of mixed solution AB is used per assay well.
(§8) Diluted 125 mL Phosphate Standard (Solution C) with 1125 mL of distilled water to make 0.1 mM working solution. The solution was used to prepare a phosphate standard curve as described in the table below.
(§9) 1. 25 μL of each phosphate standards was transferred to wells of microliter plate. 2. Added 100 μL of Malachite Green Solution AB. Mixed carefully without creating bubbles. 3. Cultured for 15 minutes at RT. 4. Measured absorbance at a wavelength between 650 nm in a microliter plate reader.
(§10) 1. Dissolved 1 mg Threonine Phosphopeptide (Catalog #12-219) in 1.10 mL of distilled water to prepare a 1 mM solution. 2. Aliquot peptide solution and stored at ˜20° C. as necessary.
(§11) 1. Mouse brain or liver was homogenized using lysis buffer (25 g/L), centrifuged at 12000 g for 10 minutes at […], and the supernatants were collected. 2. The protein was quantitated, and 240 μg of mouse brain or liver lysate was taken to assay phosphatase activity. 3. […]

PP2A [2] = assay: PP2A activity in mouse livers after IP dosing (PP2A immunoprecipitation phosphatase assay, malachite green); format: in vivo, Balb/c mice; details: for Average Conc. (group of 3 mice) / Average Relative Activity (group, vehicle = 100) / Conc. (phosphate, single reading, per mouse) / Mean Conc. (per mouse) / Mean Conc. less IgG blank (per mouse) / Relative Conc. (per mouse, to vehicle) / Relative PP2A Activity (per mouse, vehicle = 100): liver
Method: as §1, §2, §3, §4, §5, §6, §7, §8, §9, §10, §11

[3] = high dose IP (mpk: 100 1.5, 113 2.2, 151 1.6, 153 1.7, 157 2.0), 3 h
[4] = high dose IP (mpk: 100 1.5, 113 2.2, 151 1.6, 153 1.7, 157 2.0), 6 h
[5] = low dose IP (mpk: 100 0.75, 113 1.1, 151 0.8, 153 0.85, 157 1.0), 3 h
[6] = low dose IP (mpk: 100 0.75, 113 1.1, 151 0.8, 153 0.85, 157 1.0), 6 h
[7] = high dose IP (mpk: 100 1.5, 113 2.2, 151 1.6, 157 2.0), 3 h
[8] = high dose IP (mpk: 100 1.5, 113 2.2, 151 1.6, 157 2.0), 6 h

CN1CCN(C(=O)C2C(C(=O)OCC(Cl)(Cl)Cl)[C@H]3CC[C@@H]2O3)CC1 (stereo partly shown) [Compound 113]
Average Conc. (group of 3 mice) (PP2A [1]; [3]): 892.56 | Average Relative Activity (group, vehicle = 100) (PP2A [1]; [3]): 60.76 | Conc. (phosphate, single reading, per mouse) (PP2A [1]; [3]): 1058.59 and 1029.91 and 726.72 and 714.92 and 925.07 and 938.33 | Mean Conc. (per mouse) (PP2A [1]; [3]): 1044.25 and 720.82 and 931.70 | Mean Conc. less IgG blank (per mouse) (PP2A [1]; [3]): 1037.88 and 714.45 and 925.33 | Relative Conc. (per mouse, to vehicle) (PP2A [1]; [3]): 0.71 and 0.49 and 0.64 | Relative PP2A Activity (per mouse, vehicle = 100) (PP2A [1]; [3]): 70.65 and 48.63 and 62.99 | Average Conc. (group of 3 mice) (PP2A [1]; [4]): 897.74 | Average Relative Activity (group, vehicle = 100) (PP2A [1]; [4]): 64.36 | Conc. (phosphate, single reading, per mouse) (PP2A [1]; [4]): 366.91 and 317.74 and 1221.50 and 1051.60 and 1382.49 and 1084.37 | Mean Conc. (per mouse) (PP2A [1]; [4]): 342.32 and 1136.55 and 1233.43 | Mean Conc. less IgG blank (per mouse) (PP2A [1]; [4]): 335.96 and 1130.19 and 1227.07 | Relative Conc. (per mouse, to vehicle) (PP2A [1]; [4]): 0.24 and 0.82 and 0.89 | Relative PP2A Activity (per mouse, vehicle = 100) (PP2A [1]; [4]): 24.09 and 81.03 and 87.97 | activity of PP2A in brains (statement) (PP2A [1]; high dose IP, 3 h): most potent | Average Conc. (group of 3 mice) (PP2A [1]; [5]): 1540.65 | Average Relative Activity (group, vehicle = 100) (PP2A [1]; [5]): 104.88 | Conc. (phosphate, single reading, per mouse) (PP2A [1]; [5]): 1602.05 and 1620.37 and 1450.70 and 1578.91 and 1521.79 and 1508.30 | Mean Conc. (per mouse) (PP2A [1]; [5]): 1611.21 and 1514.81 and 1515.05 | Mean Conc. less IgG blank (per mouse) (PP2A [1]; [5]): 1604.84 and 1508.44 and 1508.68 | Relative Conc. (per mouse, to vehicle) (PP2A [1]; [5]): 1.10 and 1.04 (2×) | Relative PP2A Activity (per mouse, vehicle = 100) (PP2A [1]; [5]): 109.24 and 102.68 and 102.70 | Average Conc. (group of 3 mice) (PP2A [1]; [6]): 1212.05 | Average Relative Activity (group, vehicle = 100) (PP2A [1]; [6]): 86.90 | Conc. (phosphate, single reading, per mouse) (PP2A [1]; [6]): 1379.36 and 1456.24 and 1108.96 and 1143.66 and 1072.56 and 1149.69 | Mean Conc. (per mouse) (PP2A [1]; [6]): 1417.80 and 1126.31 and 1111.12 | Mean Conc. less IgG blank (per mouse) (PP2A [1]; [6]): 1411.44 and 1119.94 and 1104.76 | Relative Conc. (per mouse, to vehicle) (PP2A [1]; [6]): 1.02 and 0.81 and 0.80 | Relative PP2A Activity (per mouse, vehicle = 100) (PP2A [1]; [6]): 101.19 and 80.29 and 79.21 | Average Conc. (group of 3 mice) (PP2A [2]; [7]): 138.31 | Average Relative Activity (group, vehicle = 100) (PP2A [2]; [7]): 35.3 | Conc. (phosphate, single reading, per mouse) (PP2A [2]; [7]): 200.67 and 204.55 and 192.25 and 216.22 and 155.1 and 163.31 | Mean Conc. (per mouse) (PP2A [2]; [7]): 202.61 and 204.23 and 159.21 | Mean Conc. less IgG blank (per mouse) (PP2A [2]; [7]): 152.24 and 153.86 and 108.83 | Relative Conc. (per mouse, to vehicle) (PP2A [2]; [7]): 0.39 (2×) and 0.28 | Relative PP2A Activity (per mouse, vehicle = 100) (PP2A [2]; [7]): 38.8 and 39.21 and 27.74 | Average Conc. (group of 3 mice) (PP2A [2]; [8]): 104.16 | Average Relative Activity (group, vehicle = 100) (PP2A [2]; [8]): 26.6 | Conc. (phosphate, single reading, per mouse) (PP2A [2]; [8]): 246.88 and 269.98 and 80.17 and 78.45 and 124.87 and 126.82 | Mean Conc. (per mouse) (PP2A [2]; [8]): 258.43 and 79.31 and 125.84 | Mean Conc. less IgG blank (per mouse) (PP2A [2]; [8]): 208.06 and 28.94 and 75.47 | Relative Conc. (per mouse, to vehicle) (PP2A [2]; [8]): 0.53 and 0.07 and 0.19 | Relative PP2A Activity (per mouse, vehicle = 100) (PP2A [2]; [8]): 53.13 and 7.39 and 19.27 | activity of PP2A in livers as compared with vehicle (statement) (PP2A [2]; high dose IP, 3 h): significantly inhibited | activity of PP2A in livers as compared with vehicle (statement) (PP2A [2]; high dose IP, 6 h post treatment): significantly inhibited | Average Conc. (group of 3 mice) (PP2A [2]; [5]): 179.91 | Average Relative Activity (group, vehicle = 100) (PP2A [2]; [5]): 45.9 | Conc. (phosphate, single reading, per mouse) (PP2A [2]; [5]): 258.54 and 266.31 and 211.9 and 190.3 and 226.36 and 228.31 | Mean Conc. (per mouse) (PP2A [2]; [5]): 262.43 and 201.1 and 227.34 | Mean Conc. less IgG blank (per mouse) (PP2A [2]; [5]): 212.05 and 150.73 and 176.96 | Relative Conc. (per mouse, to vehicle) (PP2A [2]; [5]): 0.54 and 0.38 and 0.45 | Relative PP2A Activity (per mouse, vehicle = 100) (PP2A [2]; [5]): 54.04 and 38.41 and 45.1 | Average Conc. (group of 3 mice) (PP2A [2]; [6]): 212.74 | Average Relative Activity (group, vehicle = 100) (PP2A [2]; [6]): 54.3 | Conc. (phosphate, single reading, per mouse) (PP2A [2]; [6]): 229.82 and 254.44 and 279.7 and 291.58 and 266.31 and 256.81 | Mean Conc. (per mouse) (PP2A [2]; [6]): 242.13 and 285.64 and 261.56 | Mean Conc. less IgG blank (per mouse) (PP2A [2]; [6]): 191.76 and 235.27 and 211.19 | Relative Conc. (per mouse, to vehicle) (PP2A [2]; [6]): 0.49 and 0.6 and 0.54 | Relative PP2A Activity (per mouse, vehicle = 100) (PP2A [2]; [6]): 48.97 and 60.08 and 53.93 | activity of PP2A in livers as compared with vehicle (statement) (PP2A [2]; low dose IP, 3 h): significantly inhibited | activity of PP2A in livers as compared with vehicle (statement) (PP2A [2]; low dose IP, 6 h): significantly inhibited
